Earlier results as cited in US20050220753A1, “Hydrophilic polymers-flavoids conjugates and pharmaceutical compositions comprising them” (BEIJING JIANKAI TECHNOLOGY CO., LTD, priority 2002, published 2005).
Where two headings read alike, the source gives them in different places.

What was measured:
[1] = rats, intravenous injection
[2] = human, intravenously infused

Compound	absorption half-life [1] [min]	elimination half-life [1] [min]	elimination half-life [2] [min]
O=c1cc(-c2ccccc2)oc2cc(O)c(O)c(O)c12 [Baicalein]	13	42	
O=c1c(-c2ccc(O)cc2)coc2c([C@@H]3O[C@H](CO)[C@@H](O)[C@H](O)[C@H]3O)c(O)ccc12 [Puerarin]			74
